Assay results: ChEMBL document CHEMBL6114964, “Discovery of novel spirocyclic derivates as potent androgen receptor antagonists” (Bioorg Med Chem, 2025)

Assays:
CWR22R = assay: cells; type: functional, cell-based; conditions: Homo sapiens, 22Rv1, 168 h
Description: Antiproliferative activity against human 22Rv1 cells assessed as inhibition of cell viability incubated for 7 days by Celltiter-Glo assay

cells = type: functional, cell-based; conditions: Homo sapiens, LNCaP-EnzR, 168 h
Description: Antiproliferative activity against human LNCaP-EnzR cells assessed as inhibition of cell viability incubated for 7 days by Celltiter-Glo assay

[1] = mouse, microsomes, 1 h, 1 µM
in vitro [2] = conditions: human, microsomes
in vitro [3] = conditions: human, microsomes; remark: listed apart in the source
in vitro [4] = conditions: human, microsomes; remark: listed apart in the source
Description: Metabolic stability in human liver microsomes assessed as parent compound remaining at 1 uM measured after 60 mins in presence of NADPH by LC-MS/MS analysis

in vitro [5] = conditions: mouse, microsomes
Description: Metabolic stability in mouse liver microsomes assessed as parent compound remaining at 1 uM measured after 60 mins in presence of NADPH by LC-MS/MS analysis

LNCaP = assay: cells; type: functional, cell-based; conditions: Homo sapiens, 168 h
Description: Antiproliferative activity against human LNCaP cells incubated for 7 days in presence of R1881 by Celltiter-Glo assay

Androgen receptor [6] = target: T1, Androgen receptor (Homo sapiens, UniProt P10275); type: cell-based, HEK293
T1 sequence (P10275 whole entry): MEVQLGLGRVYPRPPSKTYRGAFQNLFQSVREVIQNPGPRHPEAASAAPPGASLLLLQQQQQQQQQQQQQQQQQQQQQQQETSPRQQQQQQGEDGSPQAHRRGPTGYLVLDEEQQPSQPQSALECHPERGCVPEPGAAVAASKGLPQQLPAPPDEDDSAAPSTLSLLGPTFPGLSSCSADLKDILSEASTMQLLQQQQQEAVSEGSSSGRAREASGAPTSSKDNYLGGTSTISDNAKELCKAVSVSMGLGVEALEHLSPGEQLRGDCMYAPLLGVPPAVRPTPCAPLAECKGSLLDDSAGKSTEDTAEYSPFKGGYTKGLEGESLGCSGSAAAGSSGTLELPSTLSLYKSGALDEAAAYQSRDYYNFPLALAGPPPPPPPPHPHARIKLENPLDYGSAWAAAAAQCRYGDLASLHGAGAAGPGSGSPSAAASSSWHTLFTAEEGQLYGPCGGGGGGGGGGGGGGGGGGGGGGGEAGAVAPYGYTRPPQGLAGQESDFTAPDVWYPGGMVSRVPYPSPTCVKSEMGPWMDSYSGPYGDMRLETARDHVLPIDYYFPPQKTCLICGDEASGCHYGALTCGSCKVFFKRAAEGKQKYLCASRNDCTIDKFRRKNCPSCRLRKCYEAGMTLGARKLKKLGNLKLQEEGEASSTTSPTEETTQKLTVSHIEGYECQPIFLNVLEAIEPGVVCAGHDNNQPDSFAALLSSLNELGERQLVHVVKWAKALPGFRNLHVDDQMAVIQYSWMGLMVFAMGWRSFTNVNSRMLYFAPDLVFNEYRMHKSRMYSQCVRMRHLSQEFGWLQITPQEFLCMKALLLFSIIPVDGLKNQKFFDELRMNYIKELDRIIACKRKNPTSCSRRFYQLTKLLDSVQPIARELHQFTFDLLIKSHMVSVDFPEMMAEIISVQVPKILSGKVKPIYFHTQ

Androgen receptor [7] = target: Androgen receptor (Homo sapiens, UniProt P10275, W742L); type: cell-based, HEK293
Androgen receptor [8] = target: Androgen receptor (Homo sapiens, UniProt P10275, F877L); type: cell-based, HEK293

SMILES	IC50 (LNCaP) [µM]	IC50 (Androgen receptor [6]) [µM]	other results
C[C@](O)(CN1CCN(c2ccc(-c3ccc(C#N)c(F)c3)cc2)CC1)C(=O)Nc1ccc(C#N)c(C(F)(F)F)c1	–	–	IC50 (CWR22R): 2.34 µM; IC50 (cells): 3.29 µM; CLH [1]: 282 µL/min; half-life at 1 h, 1 µM (in vitro [2]): 0.0825 h; microsomal CLint at 1 h, 1 µM (in vitro [3]): 252 µL/min/mg; remaining at 1 h, 1 µM (in vitro [4]): 0.74%; remaining at 1 h, 1 µM (in vitro [5]): 12.2%
COC(=O)c1ccc(C(=O)NC2CC3(CCN(c4ccc(C#N)c(C(F)(F)F)c4)C3)C2)cc1 (centres undefined)	6.46	–	–
C[C@](O)(Cn1ccc2cc(F)ccc21)C(=O)Nc1ccc(C#N)c(C(F)(F)F)c1	–	–	IC50 (CWR22R): 9.98 µM; IC50 (cells): 10.9 µM
N#Cc1ccc(CN2CC3(CCN(c4ccc(C#N)c(C(F)(F)F)c4)C3)C2)cc1	–	0.313	–
N#Cc1ccc(N2CCC3(CC(NC(=O)c4ccc(F)cc4)C3)C2)cc1C(F)(F)F (centres undefined)	2.23	–	–
CC(O)c1cc(C(=O)NC2CC3(CCN(c4ccc(C#N)c(C(F)(F)F)c4)C3)C2)n[nH]1 (centres undefined)	> 100	–	–
N#Cc1ccc(N2CCC3(CC(NC(=O)c4ccc(C(=O)O)cc4)C3)C2)cc1C(F)(F)F (centres undefined)	> 50	–	–
N#Cc1ccc(NC(=O)C2CC3(CCN(c4ccc(C#N)c(C(F)(F)F)c4)C3)C2)cc1 (centres undefined)	4.37	–	–
COc1ccc(C(=O)NC2CC3(CCN(c4ccc(C#N)c(C(F)(F)F)c4)C3)C2)cc1 (centres undefined)	0.92	0.0251	–
Cc1ccc(C(=O)NC2CC3(CCN(c4ccc(C#N)c(C(F)(F)F)c4)C3)C2)cn1 (centres undefined)	2.57	0.0332	–
N#Cc1ccc(N2CCC3(CC(NC(=O)c4ccc(CO)cc4)C3)C2)cc1C(F)(F)F (centres undefined)	1.99	0.0378	–
CNC(=O)c1ccc(C(=O)NC2CC3(CCN(c4ccc(C#N)c(C(F)(F)F)c4)C3)C2)cc1F (centres undefined)	2.26	0.0263	–
N#Cc1ccc(N2CCC3(CC(NC(=O)c4ccc(-c5ccc(OCCO)cc5)cc4)C3)C2)cc1C(F)(F)F (centres undefined)	0.65	–	–
N#Cc1ccc(-c2ccc(C(=O)NC3CC4(CCN(c5ccc(C#N)c(C(F)(F)F)c5)C4)C3)cc2)cc1F (centres undefined)	0.19	–	IC50 (Androgen receptor [7]): 0.116 µM; IC50 (Androgen receptor [8]): > 10 µM; IC50 (CWR22R): > 50 µM; IC50 (cells): 1.19 µM; half-life at 1 h, 1 µM (in vitro [2]): 2.57 h; microsomal CLint at 1 h, 1 µM (in vitro [3]): 9 µL/min/mg; remaining at 1 h, 1 µM (in vitro [4]): 76.8%; remaining at 1 h, 1 µM (in vitro [5]): 100%
N#Cc1ccc(-c2ccc(C(=O)NC3CC4(CCN(c5ccc(C#N)c(C(F)(F)F)c5)C4)C3)cc2)cc1 (centres undefined)	0.08	0.0298	IC50 (Androgen receptor [7]): 0.16 µM; IC50 (CWR22R): > 50 µM; IC50 (cells): 1.14 µM
CN1CCN(c2ccc(C(=O)NC3CC4(CCN(c5ccc(C#N)c(C(F)(F)F)c5)C4)C3)cc2)CC1 (centres undefined)	3.57	0.0246	–
N#Cc1ccc(N2CCC3(CC(NC(=O)c4ccc([N+](=O)[O-])cc4)C3)C2)cc1C(F)(F)F (centres undefined)	3.28	–	–
N#Cc1ccc(N2CCC3(CC(NC(=O)c4ccccc4)C3)C2)cc1C(F)(F)F (centres undefined)	–	0.0437	–
Cc1ccc(C(=O)NC2CC3(CCN(c4ccc(C#N)c(C(F)(F)F)c4)C3)C2)cc1 (centres undefined)	1.26	–	–
CC(O)c1cc(C(=O)N[C@@H](C)Cn2ccc(-c3ccc(C#N)c(Cl)c3)n2)n[nH]1 (some centres undefined) [DAROLUTAMIDE]	–	–	IC50 (cells): 31.2 µM
